In PubChem BioAssay AID248 (DTP/NCI, 2004) one finds T/C data, which are given here for 22 molecules.

Inconclusive results and toxic doses are left out.

This assay concerns L1210 leukemia ip in BDF1 mice, survival T/C. Briefly: NCI In Vivo Anticancer Drug Screen. Data for tumor model L1210 Leukemia (intraperitoneal) in B6D2F1 (BDF1) mice. Particulars: endpoint: mean survival time, higher = longer survival. The procedure, abridged:
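Each compound was tested against a transplantable tumor grown in mice. The endpoint was survival, with treated animals benchmarked against vehicle controls as a simple ratio.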

Where [1] appears, read: dose: 100.0 mg/kg/injection, schedule: Q01DX009 (ip), vehicle: Klucel (hydroxypropylcellulose) (HPC).
[2] abbreviates: dose: 100.0 mg/kg/injection, schedule: Q04DX003 (ip), vehicle: saline.
Setting [3] is: dose: 200.0 mg/kg/injection, schedule: Q01DX009 (ip), vehicle: Klucel (hydroxypropylcellulose) (HPC).
Setting [4] is: dose: 200.0 mg/kg/injection, schedule: Q04DX003 (ip), vehicle: saline.
The mark [5] stands for this setting: dose: 400.0 mg/kg/injection, schedule: Q01DX009 (ip), vehicle: Klucel (hydroxypropylcellulose) (HPC).
The mark [6] stands for this setting: dose: 400.0 mg/kg/injection, schedule: Q04DX003 (ip), vehicle: saline.
Where [7] appears, read: dose: 100.0 mg/kg/injection, schedule: Q04DX003 (ip), vehicle: Klucel (hydroxypropylcellulose) (HPC).
The mark [8] stands for this setting: dose: 200.0 mg/kg/injection, schedule: Q04DX003 (ip), vehicle: Klucel (hydroxypropylcellulose) (HPC).
The mark [9] stands for this setting: dose: 100.0 mg/kg/injection, schedule: Q01DX001 (ip), vehicle: saline.
[10] abbreviates: dose: 200.0 mg/kg/injection, schedule: Q01DX001 (ip), vehicle: saline.
[11] abbreviates: dose: 100.0 mg/kg/injection, schedule: Q04DX003 (ip), vehicle: saline with Tween-80.

As for `O=C1NC(=O)C(c2ccc(Cl)cc2)(c2ccc(Cl)cc2)N1`, the T/C was 99 % of control (dose: 45.0 mg/kg/injection, schedule: Q01DX009 (ip), vehicle: Klucel (hydroxypropylcellulose) (HPC)); 95 % of control (dose: 65.0 mg/kg/injection, schedule: Q01DX009 (ip), vehicle: Klucel (hydroxypropylcellulose) (HPC)); 100 % of control under setting [1]; 96 % of control under setting [2]; 103 % of control (dose: 150.0 mg/kg/injection, schedule: Q01DX009 (ip), vehicle: Klucel (hydroxypropylcellulose) (HPC)); 100 % of control under setting [3]. For the same molecule, the T/C under setting [4] was 92 % of control, the T/C under setting [5] was 113 % of control and the T/C under setting [6] was 97 % of control.
On to `Cc1cc(C)c(-n2c(C)cc(C(=O)O)c2C)c(C)c1C(=O)O`, for which the T/C is 102 % of control (dose: 100.0 mg/kg/injection, schedule: Q01DX001 (ip), vehicle: alcohol); 96 % of control (dose: 200.0 mg/kg/injection, schedule: Q01DX001 (ip), vehicle: alcohol); 97 % of control (dose: 400.0 mg/kg/injection, schedule: Q01DX001 (ip), vehicle: alcohol).
Take `O=c1[nH]cc(CN(CCO)CCO)c(=O)[nH]1`: the T/C reads like this: (dose: 100.0 mg/kg/injection, schedule: Q01DX Z (ip), vehicle: saline) 101 % of control; (dose: 200.0 mg/kg/injection, schedule: Q01DX Z (ip), vehicle: saline) 103 % of control.
On to `O=C(/C=C(\c1ccccc1)N1CC1)c1ccccc1`, for which the T/C by setting is: under setting [7], 106 % of control; under setting [8], 110 % of control.
As for `C=CCOC(=S)S`, the T/C reads like this: under setting [9], 95 % of control; under setting [10], 94 % of control.
For the molecule `O=C1Nc2ccccc2C1=Nc1ccc(S(=O)(=O)Nc2nccs2)cc1`, the T/C (dose: 75.0 mg/kg/injection, schedule: Q01DX001 (ip), vehicle: saline) was 89 % of control; the T/C (dose: 150.0 mg/kg/injection, schedule: Q01DX001 (ip), vehicle: saline) is 86 % of control; the T/C (dose: 300.0 mg/kg/injection, schedule: Q01DX001 (ip), vehicle: saline) is 86 % of control.
`CC[N+](C)(CC)CCOC(=O)C1C2CC3OC(=O)C1C3C2` (stereo not given): the T/C reads like this: under setting [2], 108 % of control; under setting [4], 112 % of control.
As to `Nc1nc(=O)c2[nH]cnc2n1O`, the T/C is, setting by setting: (dose: 12.5 mg/kg/injection, schedule: Q01DX009 (ip), vehicle: saline with Tween-80) 96 % of control; (dose: 16.5 mg/kg/injection, schedule: Q01DX009 (ip), vehicle: saline) 112 % of control; (dose: 25.0 mg/kg/injection, schedule: Q01DX009 (ip), vehicle: saline with Tween-80) 215 % of control; (dose: 25.0 mg/kg/injection, schedule: Q01DX009 (ip), vehicle: saline) 100 % of control; (dose: 50.0 mg/kg/injection, schedule: Q01DX009 (ip), vehicle: saline with Tween-80) 88 % of control; (dose: 55.0 mg/kg/injection, schedule: Q01DX009 (ip), vehicle: saline) 110 % of control.
With `CC1(C)N=C(N)N=C(N)N1c1ccc(/C=C/C(=O)Nc2ccc(S(=O)(=O)F)cc2)cc1`, the T/C (dose: 75.0 mg/kg/injection, schedule: Q01DX001 (ip), vehicle: Klucel (hydroxypropylcellulose) (HPC)) was 97 % of control and the T/C (dose: 150.0 mg/kg/injection, schedule: Q01DX001 (ip), vehicle: Klucel (hydroxypropylcellulose) (HPC)) was 92 % of control.
`CC1(C)N=C(N)N=C(N)N1c1ccc(CNC(=O)Nc2ccc(S(=O)(=O)F)cc2)c(Cl)c1`: the T/C was 111 % of control (dose: 45.0 mg/kg/injection, schedule: Q01DX009 (ip), vehicle: saline) and 120 % of control (dose: 67.0 mg/kg/injection, schedule: Q01DX009 (ip), vehicle: saline).
With `O=[N+]([O-])c1cc2c(c3cccnc13)COCO2`, the T/C reads like this: under setting [9], 102 % of control; under setting [10], 100 % of control; (dose: 400.0 mg/kg/injection, schedule: Q01DX001 (ip), vehicle: saline) 94 % of control.
Turning to `Cc1ccc(CN2C(=O)C=CC2=O)cc1`, the T/C is 102 % of control (dose: 12.5 mg/kg/injection, schedule: Q04DX002 (ip), vehicle: Klucel (hydroxypropylcellulose) (HPC)) and 102 % of control (dose: 25.0 mg/kg/injection, schedule: Q04DX002 (ip), vehicle: Klucel (hydroxypropylcellulose) (HPC)).
Regarding `CCN(CC)CCNc1ccccc1[N+](=O)[O-]`, the T/C was 100 % of control (dose: 75.0 mg/kg/injection, schedule: Q01DX001 (ip), vehicle: acid diluted with saline); 103 % of control (dose: 75.0 mg/kg/injection, schedule: Q04DX003 (ip), vehicle: acid diluted with saline); 102 % of control (dose: 150.0 mg/kg/injection, schedule: Q01DX001 (ip), vehicle: acid diluted with saline); 95 % of control (dose: 150.0 mg/kg/injection, schedule: Q04DX003 (ip), vehicle: acid diluted with saline); 110 % of control (dose: 300.0 mg/kg/injection, schedule: Q01DX001 (ip), vehicle: acid diluted with saline).
For the molecule `CS(=O)(=O)OCc1c(O)c2c(c(O)c1COS(C)(=O)=O)C(=O)C=CC2=O`, the T/C was 94 % of control (dose: 25.0 mg/kg/injection, schedule: Q01DX009 (ip), vehicle: water) and 97 % of control (dose: 50.0 mg/kg/injection, schedule: Q01DX009 (ip), vehicle: water).
Turning to `NCCCN=C(N)C(N)=NCCCN`, the T/C is 98 % of control under setting [2], 95 % of control under setting [4] and 104 % of control under setting [6].
For `N#CCc1ccc([N+](=O)[O-])cc1`, the T/C was 102 % of control (dose: 12.5 mg/kg/injection, schedule: Q01DX009 (ip), vehicle: Klucel (hydroxypropylcellulose) (HPC)); 98 % of control (dose: 12.5 mg/kg/injection, schedule: Q04DX003 (ip), vehicle: Klucel (hydroxypropylcellulose) (HPC)); 106 % of control (dose: 25.0 mg/kg/injection, schedule: Q01DX009 (ip), vehicle: Klucel (hydroxypropylcellulose) (HPC)); 106 % of control (dose: 25.0 mg/kg/injection, schedule: Q04DX003 (ip), vehicle: Klucel (hydroxypropylcellulose) (HPC)); 98 % of control (dose: 50.0 mg/kg/injection, schedule: Q04DX003 (ip), vehicle: Klucel (hydroxypropylcellulose) (HPC)).
For the molecule `C/C=C/C(=O)OC(=O)/C=C/C`, the T/C (dose: 25.0 mg/kg/injection, schedule: Q04DX003 (ip), vehicle: saline with Tween-80) was 94 % of control; the T/C (dose: 50.0 mg/kg/injection, schedule: Q04DX003 (ip), vehicle: saline with Tween-80) was 98 % of control; the T/C under setting [11] was 113 % of control; the T/C under setting [2] is 114 % of control.
For the molecule `CC(C)(CCc1ccccn1)C(=O)C(CCc1ccccn1)CCc1ccccn1`, the T/C is 110 % of control (dose: 222.0 mg/kg/injection, schedule: Q01DX Z (ip), vehicle: saline); 102 % of control (dose: 333.0 mg/kg/injection, schedule: Q01DX Z (ip), vehicle: saline); 96 % of control (dose: 500.0 mg/kg/injection, schedule: Q01DX Z (ip), vehicle: saline).
For the molecule `CCOC(=O)C(Cc1ccc(Cl)cc1)(Cc1ccc(Cl)cc1)C(=O)OCC`, the T/C is 100 % of control under setting [1]; 92 % of control under setting [7]; 98 % of control under setting [3]; 92 % of control under setting [8]; 102 % of control under setting [5]; 94 % of control (dose: 400.0 mg/kg/injection, schedule: Q04DX003 (ip), vehicle: Klucel (hydroxypropylcellulose) (HPC)).
In the case of `CCOC(=O)C(Cc1ccc(OCc2ccccc2)c(OCc2ccccc2)c1)(NC(C)=O)C(=O)OCC`, the T/C (dose: 100.0 mg/kg/injection, schedule: Q04DX003 (ip), vehicle: other) is 102 % of control; the T/C (dose: 200.0 mg/kg/injection, schedule: Q04DX003 (ip), vehicle: other) was 100 % of control; the T/C (dose: 400.0 mg/kg/injection, schedule: Q04DX003 (ip), vehicle: other) was 98 % of control.
On to `O=C(N/N=C/c1ccccc1Cl)c1ccccc1`, for which the T/C is, setting by setting: under setting [11], 96 % of control; (dose: 200.0 mg/kg/injection, schedule: Q04DX003 (ip), vehicle: saline with Tween-80) 101 % of control; (dose: 400.0 mg/kg/injection, schedule: Q04DX003 (ip), vehicle: saline with Tween-80) 88 % of control.
Take `CC(=O)N(C)c1ccc(NC(=O)Nc2ccc([N+](=O)[O-])cc2Cl)cc1`: the T/C by setting is: under setting [2], 96 % of control; under setting [4], 95 % of control; under setting [6], 88 % of control.
